According to PMC7051184, “C9orf72 arginine-rich dipeptide repeat proteins disrupt karyopherin-mediated nuclear import” (eLife, 2020):
Where a SMILES comes first, the peptide text is derived from it.

Key:
[1] = Bead halo assay, bare neutravidin beads (non-specific control); settings: AF488-labeled, 200 nM, binding buffer
Experimental: The bead halo assay was carried out as described with minor modifications ([Patel and Rexach, 2008]), using […] polystyrene beads coated with neutravidin (for biotinylated proteins) or glutathione (for GST-fusion proteins) (Spherotech, Lake Forest, IL). Beads were coated overnight at 4°C at saturating concentrations per manufacturers’ instructions and rinsed 2x in binding buffer (20 mM HEPES [pH 7.4], 150 mM KOAc, 2 mM Mg(OAc)2, 1 mM DTT, 0.1% Tween-20). Immediately prior to the assay, fluorescent bait proteins and beads were combined with 4x assay buffer (40 mM EDTA, 40 mg/ml BSA, 500 mM NaCl, and 0.2% Tween) to a total of 40 µL per well, in optical glass-bottom 96-well plates (Cellvis, Mountain View, CA). Reactions were allowed to equilibrate at room temperature for a minimum of 30 min prior to imaging at 100x on an LSM800 confocal microscope (Zeiss, Oberkochen, Germany). Intensity profiles comparing the maximum rim intensity to the background were plotted in ImageJ (NIH) by an investigator blinded to experimental conditions.

Matrin-3 = assay: DPR aggregation assay and western blot, Matrin-3; assay type: biochemical, human; settings: normalized to untreated HEK cells on the same membrane
Experimental: (§1) Supernatant and pellet fractions (for all 5 DPRs, and control/buffer only) were prepared as in the nuclear transport assays, by adding 100 µM 10mers to 2.5 mg/ml HEK lysate in 100 µL TRB. Supernatants were boiled in Laemmli (BioRad) for 5 min. Pellets were boiled for 15 min followed by sonication in order to fully disperse aggregates for SDS-PAGE. Equal volumes of supernatant and pellet fractions were run on 4–12% Bolt Bis-Tris Plus gels (ThermoFisher), transferred to nitrocellulose membrane using an iBlot2 dry blotting system (ThermoFisher). Protein loading was analyzed by BLOT-Faststain (G-biosciences, St. Louis, MO), according to the manufacterers’ instructions. For immunodetection, membranes were blocked with 5% non-fat milk in TBST and probed by sequential incubation with the primary antibodies as detailed in the table below. Detection was by HRP-conjugated secondary antibodies/chemiluminescence using an ImageQuant LAS 4000 system (GE, Chicago, IL). To permit sequential probing of membranes without stripping, signals were quenched by incubation with prewarmed 30% H20_2 for 20 min ([Sennepin et al., 2009]). Band intensities were measured by ImageQuant software. For pellet vs. supernatant fractions, all were expressed as percent untreated control. For blots in Figure 1E, samples were run on 4–20% SDS PAGE minigels (ThermoFisher) and blotted to PVDF membranes (Immun-Blot PVDF, Bio-Rad) using the Bio-Rad TransBlot Turbo apparatus, and probed as above. The chemiluminescence signal was captured with a Bio-Rad ChemiDoc XRS+ digital imaging system.

hnRNPA1 = assay: DPR aggregation assay and western blot, hnRNPA1; assay type: biochemical, human; settings: normalized to untreated HEK cells on the same membrane
Experimental: as §1

DDX3X = assay: DPR aggregation assay and western blot, DDX3X; assay type: biochemical, human; settings: normalized to untreated HEK cells on the same membrane
Experimental: as §1

[2] = target: T1, importin β-mediated nuclear import of Rango (Homo sapiens, UniProt Q14974); assay: Fractionated Rango transport assay (aggregates present or supernatant only), HeLa; assay type: cell-based
T1 sequence (Q14974 whole entry): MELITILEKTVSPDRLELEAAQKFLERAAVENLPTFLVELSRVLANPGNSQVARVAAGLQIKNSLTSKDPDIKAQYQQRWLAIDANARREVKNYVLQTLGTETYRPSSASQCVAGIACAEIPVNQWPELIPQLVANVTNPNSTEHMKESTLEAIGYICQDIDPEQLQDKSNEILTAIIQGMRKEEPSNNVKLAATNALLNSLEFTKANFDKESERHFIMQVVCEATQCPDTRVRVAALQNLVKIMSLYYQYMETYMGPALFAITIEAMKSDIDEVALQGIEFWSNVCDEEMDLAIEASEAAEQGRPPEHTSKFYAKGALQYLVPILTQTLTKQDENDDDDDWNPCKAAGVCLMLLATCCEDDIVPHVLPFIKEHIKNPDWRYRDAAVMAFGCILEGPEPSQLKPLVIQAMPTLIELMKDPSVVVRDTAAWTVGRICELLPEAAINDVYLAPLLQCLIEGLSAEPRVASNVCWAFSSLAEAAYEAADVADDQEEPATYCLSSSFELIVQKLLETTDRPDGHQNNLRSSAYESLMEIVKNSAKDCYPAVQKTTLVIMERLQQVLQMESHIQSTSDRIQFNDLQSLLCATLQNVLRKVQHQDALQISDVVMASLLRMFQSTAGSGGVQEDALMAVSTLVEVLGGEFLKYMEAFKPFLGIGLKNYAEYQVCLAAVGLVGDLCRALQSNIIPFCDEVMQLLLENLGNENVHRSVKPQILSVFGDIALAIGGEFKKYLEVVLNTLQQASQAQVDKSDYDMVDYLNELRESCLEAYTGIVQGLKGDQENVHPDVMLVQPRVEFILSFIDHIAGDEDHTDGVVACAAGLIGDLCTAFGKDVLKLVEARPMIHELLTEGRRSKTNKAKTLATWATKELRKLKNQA
Experimental: A single cell-derived clone of HeLa cells (ATCC, Manassas, VA; mycoplasma negative and validated by STR profiling) were maintained in OptiMEM (Gibco/ThermoFisher) with 4% FBS and plated on uncoated optical glass-bottom 96 well plates, at appropriate densities to reach 70–90% confluence on the day of the transport assay. To permeabilize, cells were rinsed for 2 min in ice-cold PBS, and permeabilized on ice for 10 min in 15–30 µg/mL digitonin (Calbiochem, San Diego, CA) in permeabilization buffer (PRB, 20 mM HEPES, 110 mM KOAc, 5 mM Mg(OAc)2, 0.5 mM EGTA, 250 mM sucrose, pH 7.5, with protease inhibitor cocktail). Following permeabilization, cells were placed on ice and rinsed 3 × 5 min in transport buffer (TRB, 20 mM HEPES, 110 mM KOAc, 2 mM Mg(OAc)2, 5 mM NaOAc, 0.5 mM EGTA, 250 mM sucrose, pH 7.3, with protease inhibitor cocktail). The optimal digitonin concentration varied by cell density and passage number, and was optimized prior to each set of assays for the ability to permeabilize the majority of plasma membranes while maintaining nuclear exclusion of a 70 kD fluorescent dextran (ThermoFisher).
Reaction mixes consisting of 2.5 mg/ml lysate, ER, fluorescent cargo (200 nM Rango and YFP-M9-CFP, 500 nM GST-GFP-NLS), Hoechst, DPRs, RNA, or inhibitors (100 µM importazole (IPZ, Millipore Sigma); 0.8 mg/mL wheat germ agglutinin (WGA, Millipore Sigma) were assembled on ice during cell permeabilization. DPRs or inhibitors were allowed to equilibrate in cell lysate for at least 30 min prior to initiation of transport. Every plate included: (1) Cargo alone: fluorescent cargo, but no ER or lysate, (2) Untreated controls: fluorescent cargo, ER, and lysate, and (3) Inhibitor: fluorescent cargo, ER, lysate, and IPZ (Rango and GST-GFP-NLS reactions) or WGA (YFP-M9-CFP). Preassembled transport reactions were then transferred onto permeabilized cells via multichannel pipette, and allowed to proceed at room temperature for 2 hr (Rango, YFP-M9-CFP) or 4 hr (GST-GFP-NLS). Cells were fixed in 4% paraformaldehyde/PBS, rinsed 2x with PBS, and transferred to 50% glycerol/PBS for immediate imaging.
For a subset of neuron transport assays, transport was monitored live via time lapse imaging every 5 min for 30 min. […]
Multiple non-overlapping fields per well (4 for time-lapse imaging, 9-16 for fixed imaging), were captured at 40x on an ImageXpress Micro XLS high-content microscope (Molecular Devices, San Jose, CA), and the ratio of nuclear to cytoplasmic fluorescence intensity was calculated using the MetaXpress automated translocation-enhanced module. […] Resulting N/C ratios were expressed as % untreated, to permit comparisons across biological replicates.

[3] = target: T1, importin β-mediated nuclear import of Rango; assay: Permeabilized cell nuclear import assay, Rango, HeLa; assay type: cell-based

| NCT inhibition in permeabilized HeLa [3] | Compound | Binding to bare beads [1] | Matrin-3 band density, % control (Matrin-3; Pellet, Blot 1) [% control] | Matrin-3 band density, % control (Matrin-3; Pellet, Blot 2) [% control] | Matrin-3 band density, % control (Matrin-3; Supernatant, Blot 1) [% control] | Matrin-3 band density, % control (Matrin-3; Supernatant, Blot 2) [% control] | hnRNPA1 band density, % control (hnRNPA1; Pellet, Blot 1) [% control] | hnRNPA1 band density, % control (hnRNPA1; Pellet, Blot 2) [% control] | hnRNPA1 band density, % control (hnRNPA1; Supernatant, Blot 1) [% control] | hnRNPA1 band density, % control (hnRNPA1; Supernatant, Blot 2) [% control] | DDX3X band density, % control (DDX3X; Pellet, Blot 1) [% control] | DDX3X band density, % control (DDX3X; Pellet, Blot 2) [% control] | DDX3X band density, % control (DDX3X; Supernatant, Blot 1) [% control] | DDX3X band density, % control (DDX3X; Supernatant, Blot 2) [% control] | Rango import with supernatant only (aggregates removed by centrifugation) [2] | Rango import with supernatant only plus RNA ([2]; RNA added) |
| --- | --- | --- | --- | --- | --- | --- | --- | --- | --- | --- | --- | --- | --- | --- | --- | --- |
|  | N=C(N)NCCC[C@H](NC(=O)[C@@H]1CCCN1C(=O)[C@H](CCCNC(=N)N)NC(=O)[C@@H]1CCCN1C(=O)[C@H](CCCNC(=N)N)NC(=O)[C@@H]1CCCN1C(=O)[C@H](CCCNC(=N)N)NC(=O)[C@@H]1CCCN1C(=O)[C@H](CCCNC(=N)N)NC(=O)[C@@H]1CCCN1C(=O)[C@H](CCCNC(=N)N)NC(=O)[C@@H]1CCCN1C(=O)[C@H](CCCNC(=N)N)NC(=O)[C@@H]1CCCN1C(=O)[C@H](CCCNC(=N)N)NC(=O)[C@@H]1CCCN1C(=O)[C@H](CCCNC(=N)N)NC(=O)[C@@H]1CCCN1C(=O)[C@H](CCCNC(=N)N)NC(=O)[C@@H]1CCCN1)C(=O)O [PR10] (H-PRPRPRPRPRPRPRPRPRPR-OH; N-terminus and C-terminus assumed) | modest non-specific binding | 407.8 | 159.1 | 25.9 | 42.9 | 165.2 | 367.1 | 61.7 | 58.6 | 156.6 | 221.4 | 10.9 | 1.8 | nuclear import remained perturbed | restored by the addition of RNA |
| did not see NCT inhibition | GA10: Synthetic 10-mer GA dipeptide repeat with C-terminal lysine and cysteine (GAGAGAGAGAGAGAGAGAGAKC) |  |  |  |  |  |  |  |  |  |  |  |  |  |  |  |
